Experimental data: paper PMC12226733, “Evolution of iGluR ligand specificity, polyamine regulation, and ion selectivity inferred from a placozoan epsilon receptor” (Communications Biology, 2025)
“And” between values parts separate entries of the source, which are not always exact repeats. Identical values can stand only once. Like-named read-outs stand apart in the source and are kept apart here.

Tests used:
GluA2 Q607S = target: T1, GluA2 Q607S (Homo sapiens, UniProt P42262, Q607S); assay: outside-out patch clamp, block by intracellular spermine, HEK-293T/17 cells; format: biochemical;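 as to Normalized conductance (Gnorm): normalized to each receptor's own maximal conductance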
T1 construct: host or cells: HEK-293T/17
Description: Parallel experiments were carried out in human GluA2 homotetramers bearing equivalent Q/R/N and +4 site mutations to compare the regulation of voltage-dependent polyamine block within the broader context of mammalian receptors. Experimental design remained the same, except for using 10 mM glutamate as the agonist used to evoke membrane currents (Fig. 7a, d, g, and j). […] Their properties were accordingly compared to wildtype GluA2(Q) co-expressed with TARP-γ2.
(§1) HEK-293T/17 cells (ATCC) were maintained in MEM supplemented with GlutaMAX and 10% fetal bovine serum (FBS) at 37 °C and 5% CO2. […] Transient transfections were carried out 48 h post-plating using the calcium phosphate precipitation method. After 6–8 hours, cells were washed twice with PBS and maintained in fresh medium. Cells transfected with mammalian GluA2 cDNA (plasmid vector described above) were returned to an incubator at 37 °C for 24–48 hours and cells transfected with Epsilon GluE1αA were incubated at 28 °C for 48–72 hours. In cells co-transfected with TARP-γ2, 30 μM NBQX was included in the medium to minimize AMPAR/auxiliary-induced cytotoxicity. All constructs were co-transfected with a plasmid encoding enhanced green fluorescent protein (eGFP) to identify transfected cells. Electrophysiology responses were recorded from outside-out patches excised from transfected cells. Recording pipettes were composed of borosilicate glass (3 to 6 megaohm, King Precision Glass) coated with dental wax to reduce electrical noise. All recordings were performed using Axopatch 200B amplifier (Molecular Devices, LLC). Current records were filtered at 5 or 10 kHz and sampled at 25–50 kHz. Series resistance (3 to 12 megaohms) was compensated by 95%. Recordings were performed at a range of holding potentials from −100 mV to 100 mV to study polyamine block. Data was acquired using pClamp9 software (Molecular Devices, LLC). All experiments were performed at room temperature. All chemicals were purchased from Sigma-Aldrich, unless otherwise indicated. External solution contained (in mM): 150 NaCl, 5 HEPES, 0.1 CaCl2, 0.1 MgCl, and […], pH 7.3–7.4. […] The osmotic pressure of all solutions was adjusted to 295 to 300 mOsm with sucrose. […] Stocks were thawed on the day of the experiment and used to prepared agonist-containing external solutions. Raw data for all electrophysiology experiments are provided in Supplementary Data 3. Current-voltage (I-V) relationships were fit using Origin 7 (OriginLab) using a ninth order polynomial function to estimate the reversal potential (Vrev).
Agonist-evoked membrane conductance (G) was calculated using the following equation: G=I/(V−Vrev)
Conductance-voltage (G-V) relationships were fit using Origin 7 (OriginLab) with the single permeant blocker model as done previously[46]: G=Gmax/1+[Spm]/Kd Where Gmax is the maximal conductance, [Spm] is the internal Spm concentration, and Kd is the dissociation constant.
Kd is defined as: Kd=koff+kperm/kon=sumofexitrates/bindingrate
And redefined as: Kd=g*exp(V/h)+L*exp(V/k) Where h and k are voltage dependencies of g and L, respectively, and at 0 mV: g=koff/konandL=kperm/kon

GluE1αA D646A = details: single recordings c1-c7, AVG c8
From the text: To further elucidate the nature of internal polyamine block in GluE1αA, we performed outside-out membrane patch clamp experiments in wildtype and mutant channels. […] Current-voltage (I-V) relationships were converted to conductance-voltage (G-V) plots and fit with a single permeant blocker model to estimate both the dissociation constant for Spm at 0 mV (Kd(0mV)) and the voltage dependency of block, as previously described[46],[47].
as §1
Agonist-evoked membrane conductance (G) was calculated using the following equation: G=I/(V−Vrev) […]

[1] = target: T2, human GluA2 receptor (wildtype) (Homo sapiens, UniProt P42262); format: cell-based; details: for normalized conductance (G-V, Figure 5g), Avg: Na vs Na
T2 construct: host or cells: CHO-K1

GluE1αA wildtype = format: cell-based, Trichoplax adhaerens; details: […]; for normalized conductance (G-V, Figure 5g), Avg: Na vs Na; for I-V current, Na vs Na, Avg of recordings: Figure 5b
[2] = GluA2 Q670S, 10 mV, single recordings and AVG
[3] = GluA2 Q670S, 20 mV, single recordings and AVG
[4] = GluA2 Q670S, 30 mV, single recordings and AVG
[5] = GluA2 Q670S, 40 mV, single recordings and AVG
[6] = GluA2 Q670S, 50 mV, single recordings and AVG
[7] = GluA2 Q670S, 60 mV, single recordings and AVG
[8] = GluA2 Q670S, 70 mV, single recordings and AVG
[9] = GluA2 Q670S, 80 mV, single recordings and AVG
[10] = GluA2 Q670S, 90 mV, single recordings and AVG
[11] = GluA2 Q670S, 100 mV, single recordings and AVG
[12] = GluA2 Q670S, -100 mV, single recordings and AVG

T1 sequence (P42262 25-883 Q607S): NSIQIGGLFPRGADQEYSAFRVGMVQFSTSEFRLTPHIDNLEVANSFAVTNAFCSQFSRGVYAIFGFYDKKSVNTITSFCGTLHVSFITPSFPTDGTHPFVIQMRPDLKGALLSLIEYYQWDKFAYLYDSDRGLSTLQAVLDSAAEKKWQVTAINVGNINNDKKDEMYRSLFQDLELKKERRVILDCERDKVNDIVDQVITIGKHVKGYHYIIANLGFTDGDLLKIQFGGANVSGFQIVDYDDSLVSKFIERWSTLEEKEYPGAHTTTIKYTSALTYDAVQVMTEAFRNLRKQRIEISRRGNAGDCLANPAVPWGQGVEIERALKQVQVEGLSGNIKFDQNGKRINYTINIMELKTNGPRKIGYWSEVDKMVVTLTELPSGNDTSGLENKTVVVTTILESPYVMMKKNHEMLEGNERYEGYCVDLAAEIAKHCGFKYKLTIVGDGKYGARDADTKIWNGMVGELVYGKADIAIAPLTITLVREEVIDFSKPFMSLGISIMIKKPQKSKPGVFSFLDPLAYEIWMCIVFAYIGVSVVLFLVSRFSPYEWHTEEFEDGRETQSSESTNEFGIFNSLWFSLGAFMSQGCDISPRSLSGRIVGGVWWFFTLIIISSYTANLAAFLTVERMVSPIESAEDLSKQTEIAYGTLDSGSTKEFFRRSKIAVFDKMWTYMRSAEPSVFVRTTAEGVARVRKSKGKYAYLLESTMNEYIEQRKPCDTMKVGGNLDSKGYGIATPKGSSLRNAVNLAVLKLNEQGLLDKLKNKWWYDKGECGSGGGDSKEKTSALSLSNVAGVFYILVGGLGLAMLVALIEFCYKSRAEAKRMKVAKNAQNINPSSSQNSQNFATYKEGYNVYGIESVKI
T2 sequence (P42262 25-883): as the sequence (P42262 25-883 Q607S) above, with S583Q counted along it

NCCCNCCCCNCCCN [spermine]
Normalized current (Inorm) (GluA2 Q607S): -0.0262 | h, voltage dependency of block onset (GluA2 Q607S; GluA2 Q607S): −14.0 ± 2.3 mV | k, voltage dependency of block relief (GluA2 Q607S; GluA2 Q607S): 164.4 ± 31.1 mV | Kd (GluA2 Q607S; GluA2 Q607S, 30 µM internal Spm, 10 mM glutamate, read-out: Kd(0mV)): 36.2 ± 6.7 µM | Normalized conductance (Gnorm) (GluA2 Q607S; GluA2 Q670S, 0 mV, single recording): 0.58 | Normalized conductance (Gnorm) (GluA2 Q607S; [2]): 0.61 and 0.49 and 0.58 and 0.59 and 0.57 | Normalized current (Inorm) (GluA2 Q607S; [2]): 0.0362 and 0.03 and 0.04 and 0.0351 and 0.0359 | Normalized conductance (Gnorm) (GluA2 Q607S; [3]): 0.63 and 0.50 and 0.57 and 0.64 and 0.59 | Normalized current (Inorm) (GluA2 Q607S; [3]): 0.095 and 0.09 and 0.10 and 0.11 | Normalized conductance (Gnorm) (GluA2 Q607S; [4]): 0.65 and 0.52 and 0.57 and 0.61 and 0.59 | Normalized current (Inorm) (GluA2 Q607S; [4]): 0.16 and 0.15 and 0.17 | Normalized conductance (Gnorm) (GluA2 Q607S; [5]): 0.67 and 0.55 and 0.57 and 0.65 and 0.61 | Normalized current (Inorm) (GluA2 Q607S; [5]): 0.23 and 0.22 and 0.25 | Normalized conductance (Gnorm) (GluA2 Q607S; [6]): 0.68 and 0.55 and 0.59 and 0.63 | Normalized current (Inorm) (GluA2 Q607S; [6]): 0.29 and 0.28 and 0.33 and 0.30 | Normalized conductance (Gnorm) (GluA2 Q607S; [7]): 0.74 and 0.61 and 0.65 and 0.67 | Normalized current (Inorm) (GluA2 Q607S; [7]): 0.39 and 0.36 and 0.38 | Normalized conductance (Gnorm) (GluA2 Q607S; [8]): 0.69 and 0.61 and 0.66 | Normalized current (Inorm) (GluA2 Q607S; [8]): 0.43 and 0.41 and 0.48 and 0.44 | Normalized conductance (Gnorm) (GluA2 Q607S; [9]): 0.72 and 0.65 and 0.71 and 0.69 | Normalized current (Inorm) (GluA2 Q607S; [9]): 0.51 and 0.57 and 0.53 | Normalized conductance (Gnorm) (GluA2 Q607S; [10]): 0.70 and 0.62 and 0.71 and 0.68 | Normalized current (Inorm) (GluA2 Q607S; [10]): 0.56 and 0.55 and 0.64 and 0.59 | Normalized conductance (Gnorm) (GluA2 Q607S; [11]): 0.72 and 0.65 and 0.76 and 0.71 | Normalized current (Inorm) (GluA2 Q607S; [11]): 0.65 and 0.77 and 0.69 | Normalized conductance (Gnorm) (GluA2 Q607S; GluA2 Q670S, -10 mV, single recordings and AVG): 0.58 and 0.48 and 0.57 and 0.51 and 0.53 | Normalized conductance (Gnorm) (GluA2 Q607S; GluA2 Q670S, -20 mV, single recordings and AVG): 0.55 and 0.46 and 0.51 and 0.49 and 0.50 | Normalized conductance (Gnorm) (GluA2 Q607S; GluA2 Q670S, -30 mV, single recordings and AVG): 0.54 and 0.46 and 0.52 and 0.50 | Normalized conductance (Gnorm) (GluA2 Q607S; GluA2 Q670S, -40 mV, single recordings and AVG): 0.55 and 0.48 and 0.52 and 0.45 and 0.50 | Normalized conductance (Gnorm) (GluA2 Q607S; GluA2 Q670S, -50 mV, single recordings and AVG): 0.57 and 0.50 and 0.52 and 0.49 | Normalized conductance (Gnorm) (GluA2 Q607S; GluA2 Q670S, -60 mV, single recordings and AVG): 0.64 and 0.55 and 0.54 and 0.56 and 0.57 | Normalized conductance (Gnorm) (GluA2 Q607S; GluA2 Q670S, -70 mV, single recordings and AVG): 0.72 and 0.61 and 0.64 | Normalized conductance (Gnorm) (GluA2 Q607S; GluA2 Q670S, -80 mV, single recordings and AVG): 0.81 and 0.68 and 0.75 and 0.67 and 0.73 | Normalized conductance (Gnorm) (GluA2 Q607S; GluA2 Q670S, -90 mV, single recordings and AVG): 0.92 and 0.76 and 0.83 and 0.81 | Normalized conductance (Gnorm) (GluA2 Q607S; [12]): 0.86 and 0.95 and 0.90 | Normalized current (Inorm) (GluA2 Q607S; [12]): -1.00 | Normalized current (Inorm) (GluE1αA D646A; 20 mV): 0.12 and 0.10 and 0.11 | Normalized current (Inorm) (GluE1αA D646A; 30 mV): 0.18 and 0.16 and 0.19 | Normalized conductance (Gnorm) (GluE1αA D646A; -100 mV): 1.00 | Normalized current (Inorm) (GluE1αA D646A; -100 mV): -1.00

[Na+] [Na]
normalized conductance (G-V, Figure 5g), Avg ([1]; Vm 0.00): 0.0219 | normalized conductance (G-V, Figure 5g), Avg ([1]; Vm 20.00): 0.0142 | normalized conductance (G-V, Figure 5g), Avg ([1]; Vm 40.00): 0.0218 | normalized conductance (G-V, Figure 5g), Avg ([1]; Vm 60.00): 0.11 | normalized conductance (G-V, Figure 5g), Avg ([1]; Vm 80.00): 0.29 | normalized conductance (G-V, Figure 5g), Avg ([1]; Vm -20.00): 0.10 | normalized conductance (G-V, Figure 5g), Avg ([1]; Vm -40.00): 0.41 | normalized conductance (G-V, Figure 5g), Avg ([1]; Vm -60.00): 0.86 | normalized conductance (G-V, Figure 5g), Avg ([1]; Vm -80.00): 1.00 | I-V current, Na vs Na, Avg of recordings ([1]; Vm 0.00, Figure 5b): -0.00449 | I-V current, Na vs Na, Avg of recordings ([1]; Vm 20.00, Figure 5b): 0.00351 | I-V current, Na vs Na, Avg of recordings ([1]; Vm 40.00, Figure 5b): 0.00517 | I-V current, Na vs Na, Avg of recordings ([1]; Vm 60.00, Figure 5b): 0.02 | I-V current, Na vs Na, Avg of recordings ([1]; Vm 80.00, Figure 5b): 0.08 | I-V current, Na vs Na, Avg of recordings ([1]; Vm -20.00, Figure 5b): -0.0114 | I-V current, Na vs Na, Avg of recordings ([1]; Vm -40.00, Figure 5b): -0.0751 | I-V current, Na vs Na, Avg of recordings ([1]; Vm -60.00, Figure 5b): -0.30 | I-V current, Na vs Na, Avg of recordings ([1]; Vm -80.00, Figure 5b): -0.69 | normalized conductance (G-V, Figure 5g), Avg (GluE1αA wildtype; Vm 0.00): 0.54 | normalized conductance (G-V, Figure 5g), Avg (GluE1αA wildtype; Vm 20.00): 0.50 | normalized conductance (G-V, Figure 5g), Avg (GluE1αA wildtype; Vm 40.00): 0.58 | normalized conductance (G-V, Figure 5g), Avg (GluE1αA wildtype; Vm 60.00): 0.65 | normalized conductance (G-V, Figure 5g), Avg (GluE1αA wildtype; Vm 80.00): 0.67 | normalized conductance (G-V, Figure 5g), Avg (GluE1αA wildtype; Vm -20.00): 0.70 | normalized conductance (G-V, Figure 5g), Avg (GluE1αA wildtype; Vm -40.00): 0.83 | normalized conductance (G-V, Figure 5g), Avg (GluE1αA wildtype; Vm -60.00): 0.93 | normalized conductance (G-V, Figure 5g), Avg (GluE1αA wildtype; Vm -80.00): 1.00 | I-V current, Na vs Na, Avg of recordings (GluE1αA wildtype; Vm 0.00): -0.0053 | I-V current, Na vs Na, Avg of recordings (GluE1αA wildtype; Vm 20.00): 0.11 | I-V current, Na vs Na, Avg of recordings (GluE1αA wildtype; Vm 40.00): 0.23 | I-V current, Na vs Na, Avg of recordings (GluE1αA wildtype; Vm 60.00): 0.38 | I-V current, Na vs Na, Avg of recordings (GluE1αA wildtype; Vm 80.00): 0.54 | I-V current, Na vs Na, Avg of recordings (GluE1αA wildtype; Vm -20.00): -0.15 | I-V current, Na vs Na, Avg of recordings (GluE1αA wildtype; Vm -40.00): -0.34 | I-V current, Na vs Na, Avg of recordings (GluE1αA wildtype; Vm -60.00): -0.54 | I-V current, Na vs Na, Avg of recordings (GluE1αA wildtype; Vm -80.00): -0.77
